Measured values as given in patent US20070142326A1, “Treatment of a condition in a mammal with administration of aminosugar and uses thereof” (priority 2004, published 2007).
Entries after “also recorded” stand apart in the source; their conditions may differ.

Assays:
chondrocytes = details: low millimolar concentrations; cited from earlier work
[1] = system: subchondral bone marrow of rabbits with ACLT (experimental OA); test: Histological grading of subchondral bone marrow, ACLT rabbits, intra-articular injections; assay type: in vivo, New Zealand White rabbits
Method: (§1) Anterior cruciate ligament transection (ACLT). Unilateral or bilateral ACLT was performed as indicated for each set of experiments. ACLT was performed using a medial arthrotomy technique (Yoshioka et al. Osteoarthritis Cartilage 1996; 4:87-98). After dislocating the patella laterally, the ACL was transected with a sharp blade. Complete transection was confirmed by a manual anterior drawer test The knee joints were irrigated with sterile saline and closed in layers with sutures. All animals were maintained individually with ad libitum activity. The animals were sacrificed 8 weeks after the surgery.
(§2) Intra-articular injections of GlcNAc. Intra-articular injections of GlcNAc started one week post-operatively for a period of seven weeks. Rabbits were injected twice per week with GlcNAc in a volume of 0.3 ml per knee joint The single dose of GlcNAc per injection was 80 mg. Control animals were injected twice per week intra-articularly with normal saline (0.3 ml per joint). The third group of rabbits received intra-articular injections of hyaluronan (0.3 ml per joint) twice per week for seven weeks starting one week after the ACL transection. Synovial fluid analysis was performed in 3 animals that developed gross synovial effusions (2 animals in the control group and 1 animal in the hyaluronan group). In all three animals synovial fluid was culture negative.
(§3) Histological grading of the knee joints. Distal femur and proximal tibia from the rabbit knee joints were fixed in 10% buffered formalin, decalcified in TBD-2 decalcifier (ThermoShandon, Pittsburg, Calif.) and embedded in paraffin blocks. Sagittal sections of lateral and medial femoral condyles, and coronal sections of tibial plateaus were used for further histological analysis.
Microscopic assessment of bone marrow was based on the presence of subchondral bone marrow hypercellularity and increased vascularization as shown in Table 3.

[2] = system: knee joints of rabbits with ACL transection; test: Gross morphological assessment of joint swelling and synovial effusion, ACLT rabbits, intra-articular injections; assay type: in vivo, New Zealand White rabbits; details: FIG. 4
Method: as §1, §2
(§4) Gross morphological assessment of the knee joints. Gross morphological assessment of the knee joints included assessment of joint swelling, synovial effusion, macroscopic articular cartilage morphology of tibial plateaus and femoral condyles, and assessment of the menisci.
The following grading system was used to assess joint swelling: Grade 0-normal; Grade 1 (mild swelling)—mild inflammation and/or proliferation of the joint capsule; Grade 2 (moderate swelling)—thickening of joint capsule and/or inflammation of the synovium; Grade 3 (severe swelling)—abundant inflammation of the synovium, swelling of the menisci or ligaments (anterior cruciate ligament or posterior cruciate ligament).

[3] = system: synovial tissue of rabbits with ACL transection; test: DNA content in synovial tissue, ACLT rabbits, intra-articular injections; assay type: in vivo, New Zealand White rabbits; details: FIG. 5
Method: as §1
Intra-articular injections of GlcNAc. Intra-articular injections of GlcNAc started one week post-operatively for a period of seven weeks. Rabbits were injected twice per week with GlcNAc in a volume of 0.3 ml per knee joint The single dose of GlcNAc per injection was 80 mg. Control animals were injected twice per week intra-articularly with normal saline (0.3 ml per joint). […]
Measurement of DNA content in synovial tissue. Synovial tissue cellularity was assessed by quantitating the tissue concentration of DNA (Amiel et. al. J Orthop Res 1986; 4:162-172). […] The aqueous phase containing the DNA was harvested, and the absorbance was measured at […]. […] Results were expressed as mg DNA per mg of dry tissue.

[4] = Continuous delivery of GlcNAc to the joint (sustained release and alzet pump methods); details: after a single intra-articular administration
Method: Release of GlcNAc from formulations incubated in phosphate buffered saline. An in vitro release study was performed in phosphate buffered saline to evaluated release kinetics under physiological conditions. Each sustained release formulation (100 μl) was placed in 1.0 mL of phosphate buffered saline and then incubated at 37° C. At different time points, the formulation matrix was separated by removing the phosphate buffered saline bathing solution with a pipet. The resulting solutions were analyzed by UV detection after GlcNAc derivatives were formed by methods previously described (Reissig et. al. J. Biol. Chem. 1955 217: 959-966). The formulation matrix was then re-suspended in 1.0 mL phosphate buffered saline and incubated under the same conditions as described above.
Alzet Pump Administration of GlcNAc. New Zealand White rabbits, 3.0-3.5 kg, were used in this experiment. They were randomly allocated into five groups, each group having 8 rabbits. Group A was treated with saline (negative control group); Group B was treated with 1.5 M GlcNAc group; Group C was treated with 0.5 M GlcNAc group; Group D was treated with 0.15 M GlcNAc group; Group E was treated with 0.05 M GlcNAc group. All compounds were continuously delivered to the joints by Alzet mini pumps. The delivery rate for this pump was 2.5 μl/hour. […]

[5] = system: articular cartilage of rabbits with ACLT (experimental OA); test: Histological grading of articular cartilage, ACLT rabbits, intra-articular injections; assay type: in vivo, New Zealand White rabbits; details: N = 6; for Sulfated glycosaminoglycan loss, histological grade: grade 1-3 by loss of Safranin O staining, intra-articular 80 mg twice per week for 7 weeks; for Impairment of cartilage surface integrity, histological grade: grade 1 intact to 3 full thickness defect, intra-articular
Method: as §1, §2, §3
The assessment of sulfated glycosaminoglycan (SGAG) content was performed after staining of the tissue sections with Safranin O/Fast Green.
The following grading system was used for assessing SGAG content: Grade 1—Less than 25% loss of Safranin O staining, Grade 2—25-50% loss of Safranin O staining; Grade 3—More than 50% loss of Safranin O staining;
The following grading system was used for assessing cartilage integrity: Grade 1—Intact cartilage surface; Grade 2—Presence of fibrillations; Grade 3—Full thickness cartilage defect. In addition, all tissue samples were analyzed for the presence of chondrocyte proliferation or cloning.

[6] = system: synovium of rabbits with ACLT (experimental OA); test: Histological grading of synovium, ACLT rabbits, intra-articular injections; assay type: in vivo, New Zealand White rabbits
Method: as §1, §2, §3
Histological assessment of synovium was based on the presence of synovial proliferation and synovial neoangiogenesis, and it was performed separately for the synovium attached to the tibial plateaus, lateral, and medial femoral condyles.

[7] = system: human articular chondrocytes; details: cited from earlier work
[8] = system: femoral condyles and tibial plateaus of rabbits with ACL transection; test: Gross morphological assessment and digital imaging of articular cartilage, ACLT rabbits, intra-articular injections; assay type: in vivo, New Zealand White rabbits; details: for Gross morphological analysis of the femoral condyles: FIG. 2
Method: as §1, §2
Gross morphological assessment of the articular cartilage. The distal femur and proximal tibia were harvested keeping a 3.5 cm to 4 cm shaft of the bones. The articular cartilage surface of each specimen was covered with a solution consisting of India ink (Eberhard Faber, Lewisburg, Tenn.) in PBS (1:5 ratio). Excess ink solution was removed by gentle blotting with a tissue that was pre-moistened with PBS. Subsequently, all joints were photographed and digital images were analyzed.
Digital imaging. Articular surfaces of femoral condyles and tibial plateaus were gently blotted dry and cleaned of loose tissue. Each femoral shaft was clamped to an optical bench. An image (resolution: 60 pixels per mm; onscreen magnification: 20×) of the femoral condyles was obtained using a Canon EOS D30 digital camera with a 100 mm macro lens at a distance of approximately 12 cm. A millimeter scale was included in the photograph to accurately scale the image. The scaled image was then projected onto a 3D model of the femoral condyles. The 3D surface area of the lesion was measured by interactively plotting the margins of the lesion. A digital image of articular surface of the tibia was obtained as described above.

[9] = system: rabbits with bilateral anterior cruciate ligament transection (ACLT); test: Intra-muscular GlcNAc in rabbits with bilateral ACLT, gross morphological grading; assay type: in vivo, New Zealand White rabbits
Method: as §1
Intra-muscular injections of GlcNAc. Intra-muscular injections of GlcNAc were performed three times per week starting one week postoperatively for a period of seven weeks. The dose of GlcNAc was 200 mg/kg per injection. The control group of received the same number of intra-muscular injections of normal saline.
as §4
Gross morphological assessment of the articular cartilage. […] Subsequently, all joints were photographed and digital images were analyzed.

N[C@H]1C(O)O[C@H](CO)[C@@H](O)[C@@H]1O (stereo partly drawn) [GlcN, glucosamine]
Cytotoxicity for chondrocytes (chondrocytes): cytotoxic for chondrocytes at low millimolar concentrations

CC(=O)N[C@H]1C(O)O[C@H](CO)[C@@H](O)[C@@H]1O (stereo partly drawn) [GlcNAc, N-Acetylglucosamine]
Subchondral bone marrow hypercellularity and increased vascularization, animals with finding / animals ([1]; Lateral femoral condyle, N = 6, saline 3/7, P ≦ 0.07): 0/6
Subchondral bone marrow hypercellularity and increased vascularization, animals with finding / animals ([1]; Medial femoral condyle, N = 6, saline 3/7, P ≦ 0.07): 0/6
Subchondral bone marrow hypercellularity and increased vascularization, animals with finding / animals ([1]; Tibial plateau, N = 6, saline 3/7, P ≦ 0.35): 1/6
Synovial effusion ([2]; intra-articular GlcNAc versus hyaluronan group): no significant difference
Joint swelling ([2]; intra-articular, versus saline): does not significantly affect
Synovial effusions ([2]; intra-articular, versus saline): does not significantly affect
DNA content assessment of synovial tissue ([3]; intra-articular GlcNAc versus hyaluronan group, p<0.05): significant reduction in synovial hyperplasia and cellularity
DNA content in synovial tissue ([3]; intra-articular, versus saline): does not significantly affect
Duration of continuous delivery to the joint [4]: more than three weeks
Sulfated glycosaminoglycan loss, histological grade ([5]; Lateral femoral condyle, saline 2.43 ± 0.53, P ≦ 0.03): 1.50 ± 0.83
Impairment of cartilage surface integrity, histological grade ([5]; Lateral femoral condyle, saline 2.00 ± 1.00, P ≦ 0.17): 1.33 ± 0.51
Sulfated glycosaminoglycan loss, histological grade ([5]; Medial femoral condyle, saline 1.57 ± 0.53, P ≦ 0.4): 1.66 ± .33
Impairment of cartilage surface integrity, histological grade ([5]; Medial femoral condyle, saline 1.66 ± 0.41, P ≦ 0.91): 1.66 ± 0.81
Sulfated glycosaminoglycan loss, histological grade ([5]; Tibial plateau, saline 1.71 ± 0.76, P ≦ 0.14): 1.16 ± 0.40
Impairment of cartilage surface integrity, histological grade ([5]; Tibial plateau, saline 1.71 ± 0.49, P ≦ 0.05): 1.16 ± 0.41
Synovial neoangiogenesis, animals with finding / animals ([6]; Lateral femoral condyle, N = 6, saline 4/7, P ≦ 0.16): 1/6
Synovial thickening/proliferation, animals with finding / animals ([6]; Lateral femoral condyle, N = 6, saline 7/7, P ≦ 0.006): 2/6
Synovial neoangiogenesis, animals with finding / animals ([6]; Medial femoral condyle, N = 6, saline 5/7, P ≦ 0.05): 1/6
Synovial thickening/proliferation, animals with finding / animals ([6]; Medial femoral condyle, N = 6, saline 7/7, P ≦ 0.006): 2/6
Synovial neoangiogenesis, animals with finding / animals ([6]; Tibial plateau, N = 6, saline 4/7, P ≦ 0.16): 1/6
Synovial thickening/proliferation, animals with finding / animals ([6]; Tibial plateau, N = 6, saline 7/7, P ≦ 0.0002): 1/6
Concentration that does not induce chondrocyte cell death [7]: higher than 50 mM
Surface areas of the cartilage lesions (digital image analysis) ([8]; femoral condyles and tibial plateaus, intra-articular GlcNAc versus hyaluronan group, FIGS. 6a and 6b): greatly reduced
Gross morphological analysis of the femoral condyles ([8]; intra-articular GlcNAc versus intra-articular hyaluronan group (n=7)): no significant difference
Chondroprotective activity, gross morphology of tibial plateaus ([8]; intra-articular GlcNAc versus intra-articular hyaluronan, p<0.01, FIG. 3): significantly greater
Gross morphological analysis of the femoral condyles ([8]; intra-articular, two times per week for seven weeks, n=7, versus saline control): trend towards improved cartilage condition
Rabbits that developed a cartilage lesion on the tibial plateaus ([8]; intra-articular, two times per week for seven weeks, control group 6 of 7, p<0.003, FIG. 3): 1 of 7
Degree of cartilage damage, gross morphological analysis of tibial plateaus and femoral condyles ([9]; intra-muscular 200 mg/kg three times per week for seven weeks, 6 rabbits versus 6 saline controls, FIGS. 1a and 1b): did not reveal a statistically significant difference
Synovitis ([9]; intra-muscular GlcNAc): trend towards reduction of synovitis; also recorded: significant reduction of synovitis
